The values that follow come from US9649297B2, “Treatment of ADHD” (Gosforth Centre (Holdings) Pty Ltd., priority 2007, dated 2017).

SMILES strings stand for the structures. Structures can show the parent of a compound that is named as a salt.

In data set [1] the test system is epileptics and individuals with bipolar disorders. Conditions: per day; usual minimum anti-convulsant dose; cited from earlier work.
For data set [2], the system named is patients who had symptoms of ADHD. As to the kind of experiment: Clinical study with anti-epileptic mood stabilisers alone in patients with symptoms of ADHD (Example 3). It counts as in vivo, human. Conditions: for patient-reported improvements (self and other rating scales, clinical assessments): monotherapy without stimulant, topiramate 12.5-50 mg/day, Phenytoin 30-60 mg/day, valproate same dose range as combined treatment.
Description: The improvements assessed using self and other rating scales objective psychometric tool together with repeated clinical assessments.

Another data set deals with ADHD patients. As for the experimental part: A. Topiramate in Combination with Dexamphetamine (n=11)
The third trial clinical has been with phenytoin and a psychostimulant (n=8). Phenytoin is less often used for its psychoactive properties than either valproate or topiramate. […] The assessment methods were as per the trials with valproate and topiramate.
C. Phenytoin in Combination with Dexamphetamine (n=6)
E. Sodium Valproate in Combination with Methylphenidate (n=4) • Sodium Valproate: average 1.6 mg/kg/day (130 mg/day) • Methylphenidate: average 1.2 mg/kg/day (84 mg/day)

In a further data set the test system is adults with ADHD. As for the experimental part: The initial dosages used were from 15 to 70 mg/day of dexamphetamine and from 100 to 700 mg/day of VPA (Epilim) (=approximately 2 to 10 mg/kg/day).
The determination of the dose for the dexamphetamine was undertaken in a clinical sensitive open label manner. The dose was titrated upwards dependent on the clinical response and the freedom from side-effects. The dose range was between 15 and 70 mg a day. The frequency of the dosing also varied dependent upon the clinical response. The usual dose interval was between two to four hours. This dosing adjustment took place prior to the commencement of the sodium valproate. The sodium valproate medication was initiated once a day at 50 mg tablet or elixir and titrated upwards dependent on response, but not more than one increase every three days. The dose was given as a once or twice a day regime. During the titration phase, if clinically possible, no other adjustments to the pharmacotherapy were undertaken.
The dosages of sodium valproate, after adjustment, varied between 50 mg/day, 100 mg/day, 150 mg/day or 200 mg/day (number of patients—120), with the majority of patients receiving between 50 to 150 mg/day with […] usually the maximum.
The results were assessed using the Conners Adult ADHD Rating scales completed by the patient and observer (usually partner or parent). In a sample of 26 patients who completed self CAARS rating scales at; pre treatment, stable on stimulant and stable on anti-epileptic drug (AED).

The test system of data set [3] is patients with a diagnosis of GAD. Kind of data set: Treatment of Generalised Anxiety Disorder (GAD) with low dose AED (Example 5). It counts as in vivo, human. The note with it: 50 to 150 mg, without co-administration of a stimulant. As for the experimental part: The diagnostic criteria cited for inclusion in this study included reference to excessive anxiety and worry which had been present for at least 6 months and which was difficult to control and associated with difficulty concentrating, becoming easily fatigued, restlessness or feeling keyed up or on edge and sleep disturbance. […] The medication was well tolerated with few side effects at the dose given. The improvement was evaluated using self and observer rating scales together with clinician review. As in the ADHD trials response usually commenced within 3-7 days. Due to the robust and persistent benefit, six months at the time of writing, many of the other psychotropic medications were reduced or even ceased.

[4] abbreviates: low dose sodium valproate with dexamphetamine.

`CCC1(c2ccccc2)C(=O)NC(=O)NC1=O.CNC(C)CC1CCCCC1` [Barbexaclone]: the “Minimum Dose/day effective for mood stabilisation” value (“Minimum Dose/day effective” for short) in data set [1] was 200 mg in divided doses.

With `NC(=O)N1c2ccccc2C=Cc2ccccc21` [Carbamazepine, (Z)-5H-dibenzo[b,f]azepine-5-carboxamide], the “Minimum Dose/day effective” value in data set [1] is reported as 400 mg.

In the case of `CN1C(=O)CC(=O)N(c2ccccc2)c2cc(Cl)ccc21` [Clobazam], the “Minimum Dose/day effective” value in data set [1] was 5 mg/kg daily.

`O=C1CN=C(c2ccccc2Cl)c2cc([N+](=O)[O-])ccc2N1` [Clonazepam]: in data set [1], the “Minimum Dose/day effective” value was 1 mg.

For `CCN1C(=O)OC(C)(C)C1=O` [Ethadione], the “Minimum Dose/day effective” value in data set [1] is given as 1000 mg.

With `CCC1(C)CC(=O)NC1=O` (centres unmarked) [Ethosuximide], the “Minimum Dose/day effective” value in data set [1] is 1000 mg.

On to `CCN1C(=O)NC(c2ccccc2)C1=O` (centres unmarked) [Ethotoin, 3-ethyl-5-phenyl-imidazolidine-2,4-dione], for which, in data set [1], the “Minimum Dose/day effective” value is recorded as 1000 mg.

Take `NC(=O)OCC(COC(N)=O)c1ccccc1` [Felbamate]: in data set [1], the “Minimum Dose/day effective” value is given as 1200 mg.

As for `O=C1NC(c2ccccc2)(c2ccccc2)C(=O)N1COP(=O)(O)O` [Fosphenytoin Sodium], the “Minimum Dose/day effective” value in data set [1] is 10 mg/kg.

As for `NCC1(CC(=O)O)CCCCC1` [Gabapentin, 2-[1-(aminomethyl)cyclohexyl]acetic acid], in data set [1], the “Minimum Dose/day effective” value is 900 mg.

Regarding `Nc1nnc(-c2cccc(Cl)c2Cl)c(N)n1` [Lamotrigine], the “Minimum Dose/day effective” value in data set [1] is recorded as 100 mg.

For `CC[C@@H](C(N)=O)N1CCCC1=O` [Levetiracetam], the “Minimum Dose/day effective” value in data set [1] is given as 1000 mg.

On to `COC1=CC(=O)OC1C(O)c1ccccc1Cl` (centres unmarked) [Losigamone], for which, in data set [1], the “Minimum Dose/day effective” value was 1500 mg.

`CCC1(c2ccccc2)NC(=O)N(C)C1=O` (centres unmarked) [Mephenytoin]: the “Minimum Dose/day effective” value in data set [1] is given as 200 mg.

With `NC(=O)N1c2ccccc2CC(=O)c2ccccc21` [Oxcarbazepine, 10,11-Dihydro-10-oxo-5H-dibenz[b,f]azepine-5-carboxamide], in data set [1], the “Minimum Dose/day effective” value is on record as 600 mg.

Turning to `CCC(C(=O)NC(N)=O)c1ccccc1` (centres unmarked) [Pheneturide], in data set [1], the “Minimum Dose/day effective” value is reported as 600 mg.

As for `O=C1NC(=O)C(c2ccccc2)(c2ccccc2)N1` [Phenytoin, 5,5-diphenylimidazolidine-2,4-dione], the “patient-reported improvements (self and other rating scales, clinical assessments)” value (“patient-reported improvements” for short) in data set [2] is “improvements in the organisation of thoughts in conversation and reading comprehension”. The “overall effect and tolerability” value with ADHD patients (phenytoin at low dose with a psychostimulant, n=8) is “robust and well tolerated effect in eight patients”. In addition, the “Minimum Dose/day effective” value in data set [1] was 200 mg.

Regarding `CC(C)C[C@H](CN)CC(=O)O` [Pregabalin, (S)-3-(aminomethyl)-5-methylhexanoic acid], the “Minimum Dose/day effective” value in data set [1] is given as 300 mg.

As to `CCC1(c2ccccc2)C(=O)NCNC1=O` [Primidone], the “Minimum Dose/day effective” value in data set [1] is 750 mg.

Turning to `NC(=O)c1cn(Cc2c(F)cccc2F)nn1` [Rufinamide], in data set [1], the “Minimum Dose/day effective” value was 400 mg.

Turning to `NS(=O)(=O)c1ccc(N2CCCCS2(=O)=O)cc1` [Sultiame], the “Minimum Dose/day effective” value in data set [1] is reported as 200 mg.

`Cc1ccsc1C(=CCCN1CCC[C@H](C(=O)O)C1)c1sccc1C` [Tiagabine Hydrochloride, (3S)-1-[4,4-bis(3-methylthiophen-2-yl)but-3-enyl]piperidine-3-carboxylic acid]: in data set [1], the “Minimum Dose/day effective” value is listed as 30 mg.

In the case of `CC1(C)O[C@@H]2[C@@H](CO[C@@]3(COS(N)(=O)=O)OC(C)(C)O[C@@H]23)O1` [Topiramate, 2,3:4,5-Bis-O-(1-methylethylidene)-beta-D-fructopyranose sulfamate], in data set [2], the “patient-reported improvements” value is “improvements in the organisation of thoughts in conversation and reading comprehension”. In addition, the “effect on coordination, organisation and motivation” value in data set [2] (topiramate alone 12.5-50 mg/day) was “effect on coordination, as well as improved organisation and motivation”. Further, the “tolerability at initial titration” value with ADHD patients (25 mg increasing to 125 mg daily, with stimulant) is “intolerable side effects and ceasing of medication”. Besides, the “Conners' Adult ADHD Rating scales (self and observer), DEM, clinician interview” value in the data set with ADHD patients (re-titration commencing at 6.25 or 12.5 mg, with stimulant) was “significant improvements”. For the same compound, the “Minimum Dose/day effective” value in data set [1] is 100 mg.

Consider `C=CC(N)CCC(=O)O` (centres unmarked) [Vigabatrin], for which, in data set [1], the “Minimum Dose/day effective” value is 1000 mg.

For the compound `NS(=O)(=O)Cc1noc2ccccc12` [Zonisamide], the “Minimum Dose/day effective” value in data set [1] was 200 mg.

Turning to `CCCC(CCC)C(=O)O.[Na]` [sodium valproate, sodium di-n-propylacetic acid], the “psychosocial functioning (patient description, clinical review)” value with adults with ADHD (VPA added to dexamphetamine, dose below that for bipolar disorder) is reported as “overall improvement in psychosocial functioning”. Besides, in the data set with adults with ADHD (in vivo), the “adverse effect at higher dosages” value is “general cognitive and a resultant loss of efficacy”; the “adverse effect at higher doses” value was “general cognitive slowing and the resultant loss of efficacy”. In the data set with adults with ADHD (setting [4]), the “oculomotor function, Developmental Eye Movement Test (DEM)” value is on record as “has shown improvement”; the “reading and verbal comprehension abilities (patient report)” value was “improvement in their reading and verbal comprehension abilities”. Also, the “patient-reported improvements” value in data set [2] is “improvements in the organisation of thoughts in conversation and reading comprehension”. Further, the “function and symptoms in Generalised Anxiety Disorder” value in data set [3] was “sustained improvement in function and a reduction in symptoms”.
